We go through seven substances from patent publication US12497610B2, “Functional genomics using CRISPR-CAS systems for saturating mutagenesis of non-coding elements, compositions, methods, libraries and applications thereof” (THE BROAD INSTITUTE, INC., priority 2015, dated 2025).

Holding throughout (assay type): cell-based, human
In one series the test system is CUL3. Put plainly: ddPCR quantification of CUL3 expression in A375 cells transduced with individual sgRNAs. Particulars: for CUL3 expression: A375, relative to non-targeting sgRNAs, result in words; for decrease in CUL3 expression: A375, 7 days post-transduction, normalized to non-targeting sgRNAs. From the text: Array Validation of Primary Screen Hits
For individual (array) validation of noncoding sgRNAs, Applicants first identified sgRNAs enriched in the top 5% of the library as given by the normalized log 2(Vemu/DMSO) read ratio. In order to have high confidence in these sgRNAs, Applicants used the minimum of the two infection replicates for the normalized log2 (Vemu/DMSO) read ratio. […] This ensures that putative noncoding functional elements were supported by the presence of at least 2 enriched sgRNAs. From this group, Applicants picked 25 sgRNAs distributed across different genomic regions for individual validation (see table S2 for a list of sgRNA sequences). Applicants also included 3 exon-targeting and 3 non-targeting sgRNAs to serve as positive and negative controls, respectively.
For each sgRNA, standard desalted short oligonucleotides (Integrated DNA Technologies) were annealed, phosphorylated and cloned into a lentiviral vector (lentiCRISPRv2, Addgene 52961) that contained Cas9 and an sgRNA cassette. For each sgRNA, A375 cells were transduced with lentiviral supernatants. After 24 hours, media was replaced with R10 with 1 ug/mL of puromycin. Viral volumes were titered such that 20-40% of cells survived after puromycin selection. After selection and expansion for 7 days in puromycin, cell were plated for DNA/RNA extraction, vemurafenib resistance, or ChIP assays.
RNA Extraction and ddPCR Quantification of CUL3 Expression
After 7 days of puromycin selection, A375 cells transduced with individual lentiCRISPRv2 sgRNAs were plated in 3 replicate wells (2×10^3 cells/well) in 96-well plates. After 4 days (70-90% confluent), RNA was extracted using a homemade version of a rapid lysis kit for quantitative PCR (similar to commercial “Cells-to-Ct”-style kits). This procedure (detailed below) enables rapid RNA extraction and qPCR/ddPCR readout from 96-well plates with minimal hands-on time.
Cells were first washed in 100 ul of chilled phosphate-buffered saline (PBS). Then, cells were incubated at room temperature for 8 minutes in 50 ul of Complete Lysis Buffer. The Complete Lysis Buffer consists of the Base Lysis Buffer with freshly added 100 ug/ml Proteinase K (Sigma P2308) and 300 U/mL DNase I (Sigma D2821). When adding DNase I, it is important to not vortex but mix only by gentle pipetting. The Base Lysis Buffer is made in RNAse-free water (ThermoFisher Scientific 10977015) with 10 mM Tris pH8 (Ambion AM9856), 0.5 mM MgCl2 (Sigma M1028), 0.44 mM CaCl2 (Sigma 21115), 10 uM DTT (Sigma 43816), 0.1% Triton X-114 (Calbiochem 648468), and 1.73 mN HCl (Sigma 318965) and should have a final pH of 7.8. The Base Lysis Buffer is stable at 4° C. for up to 6 months.
After the 8-minute incubation in Complete Lysis Buffer, 30 ul of the cell lysis was added to new PCR plates containing 3 ul of STOP buffer in each well to stop the lysis reaction. The STOP buffer is made in RNAse-free water with 1 mM Proteinase K inhibitor AAPF N-(Methoxysuccinyl)-Ala-Ala-Pro-Phe-chloromethyl ketone (SEQ ID NO: 174) (Millipore 539470), 90 mM EDTA (ThermoFisher Scientific 15575020), and 113 uM DTT (Sigma 43816). The final pH of the STOP buffer should be 8, adjusted appropriately with HCl and KOH. The STOP buffer is stable for up to 6 months at 20° C. The lysis reaction was mixed with the STOP buffer by pipetting up and down 5 times. Applicants then incubated the lysis and STOP buffer for at least 2 minutes but not more than 20 minutes. (Extra stopped lysis can be stored at −80° C. for up to 5 months.)
Applicants transferred 5 ul of the stopped lysis to new PCR plates with 20 ul of RT master mix. The RT master mix is from the RevertAid Reverse Transcriptase kit (ThermoFisher Scientific K1691) and is as described in the manufacturer's protocol but with an added oligo-dT primer. […]

In the next series the test system is YY1. In words: ChIP-ddPCR for YY1. Conditions: ChIP-ddPCR around cut site vs non-targeting sgRNA. The procedure:
(§1) Chromatin Immunoprecipitation (ChIP) for Histone Modifications and Transcription Factors
(§2) After 7 days of puromycin selection, A375 cells transduced with individual lentiCRISPRv2 sgRNAs were plated in T-225 flasks and grown to 70-90% confluence (6 days). At this point, chromatin fixation was initiated by adding formaldehyde directly to the growth media (final concentration 1%) and incubating at 37° C. for 10 minutes. The entire two-day ChIP procedure was performed using the Magna ChIP HiSens Chromatin Immunoprecipitation Kit (Millipore 1710460), as specified in the manufacturer's protocol. […]
(§3) Using BatchPrimer3, Applicants designed primers centered on the sgRNA target site with a target amplicon size of 80-120 bp (see table S4 for ChIP-ddPCR primers). Droplet digital PCR (ddPCR) reactions using EvaGreen (BioRad 1864034) were used to quantify changes between input, histone/TF ChIP, and IgG ChIP samples for A375 cells transduced with specific sgRNAs and untransduced A375 cells. […] Applicants calculated the percent change in ChIP signal after genome editing by normalizing each ChIP sample to its corresponding input sample and then comparing the normalized ChIP between A375s transduced with specific sgRNAs and untransduced (control) A375 cells.

The test system of a further series is ZNF263. In words: ChIP-ddPCR for ZNF263. Particulars: ChIP-ddPCR vs non-targeting sgRNA. How it is done: as §1, §2, §3
For series [1], the system named is sgRNA target sites near CUL3. In words: Deep sequencing after CRISPR mutagenesis (indel analysis at sgRNA target sites). How it is done:
Deep Sequencing after CRISPR Mutagenesis
After 7 days of puromycin selection, A375 cells transduced with individual lentiCRISPRv2 sgRNAs were plated in 2 replicate wells (2×10^3 cells/well) in 96-well plates. Cells were plated in either R10+DMSO or R10+vemurafenib (2 uM). After 4 days (70-90% confluent), Applicants extracted gDNA from all wells (Illumina/Epicentre QuickExtract QE09050) and performed amplification and deep sequencing as previously described (Shalem et al. 2014). Briefly, for each sgRNA target site, Applicants designed PCR primers to amplify genomic regions surrounding the site (100-200 bp amplicons) and to add universal handles for the second stage of amplification (see table S3 for all deep sequencing primers). Applicants then used a second PCR step to add sequences needed for Illumina sequencing and sample barcoding. Applicants pooled all samples together and sequenced them on a MiSeq using a 250 bp single-end read (Illumina MS-102-2002).
Custom Python scripts were used for barcode demultiplexing and insertion-deletion (indel) length measurement. To measure indel length and eliminate any potential off-target or primer-dimer reads, Applicants first identified our genomic (first PCR step) primers in each read. Applicants then checked that each read contained at least 5 bases beyond each of the genomic primers. Typically, 80-90% of demultiplexed reads matched this criterion. Reads matching this criterion were used to measure indel length by comparing distances between the identified primer-adjacent sequences with those in the reference sequence. Further multiple alignment analysis for specific sgRNAs was done using Geneious's iterative k-mer multiple alignment tool (Geneious 6.1.7).

The test system of another series is JUN. Put plainly: ChIP-ddPCR for JUN. Particulars: ChIP-ddPCR compared with control cells. The procedure: as §1, §2, §3
In the next series the test system is FOS. Put plainly: ChIP-ddPCR for FOS. Particulars: ChIP-ddPCR compared with control cells. How it is done:
as §1, §2, §3

The next series has as its system CTCF. In words: ChIP-ddPCR for CTCF. Conditions: ChIP-ddPCR at the site after editing. How it is done: as §1, §2, §3

In the case of “5′-UTR sg1: validation sgRNA AGGAGGAGGAGGACGACGTT, SEQ ID NO 457, 5′ UTR (expressed or natural sequence)”, the CUL3 expression result in the series with CUL3 is recorded as “significantly decrease”. Also, the “decrease of YY1 binding” value with YY1 is on record as 26%.

Consider “Intron-sg1: validation sgRNA TCCGCGGCTGCTAGCAGCGC, SEQ ID NO 454, intron and promoter (expressed or natural sequence)”, for which the CUL3 expression result with CUL3 is on record as “decrease in CUL3 expression”. For the same substance, the ZNF263 occupancy entry with ZNF263 is recorded as “significant decrease”.

On to “5′-UTR sg2: validation sgRNA GCGCTCCTCCGCGATGGCGG, SEQ ID NO 456, 5′ UTR (expressed or natural sequence)”, for which, in series [1] (A375, vemurafenib vs DMSO control, 4 days), the “indel mutations that damage a YY1 binding motif” value was “more indel mutations that damage a YY1 binding motif”. The CUL3 expression result in the series on CUL3 is given as “significantly decrease”. Also, the “decrease of YY1 binding” value with YY1 is 67%.

Consider “distal 3′ sg1: validation sgRNA AGOACACAGTCATAACCACA, SEQ ID NO 445, 3′ of CUL3 (guide AGCACACAGTCATAACCACA; expressed or natural sequence)”, for which the JUN binding result in the series on JUN is listed as “decreased”. The “decrease in CUL3 expression” value in the series on CUL3 was around 25%. For the same substance, the FOS binding result with FOS is recorded as “decreased”.

Regarding “Intron-sg2: validation sgRNA CGCGGAGTCCTCCCTGTGTG, SEQ ID NO 455, intron and promoter (expressed or natural sequence)”, in the series on CUL3, the CUL3 expression entry is reported as “decrease in CUL3 expression”. Moreover, the ZNF263 occupancy result in the series on ZNF263 is “significant decrease”.

As for “CTCF sg1: validation sgRNA GCCACAGCCATGCCCAGTOG, SEQ ID NO 446, 3′ of CUL3 (guide GCCACAGCCATGCCCAGTGG; expressed or natural sequence)”, the “decrease of CTCF occupancy” value in the series on CTCF is given as 45%. In series [1] (A375, deep sequencing of the site), this substance came in with a mean indel size of −9.5 bp. In addition, the “amplicons / alleles containing insertion-deletion (indel) mutations” value in series [1] (A375 after 7 days selection) stood at 96%. Moreover, in the series with CUL3, the “decrease in CUL3 expression” value is 30%.

Turning to “distal 3′ sg2: validation sgRNA GCAGCGTCCGGAGTTGGCAC, SEQ ID NO 444, 3′ of CUL3 (expressed or natural sequence)”, in the series on JUN, the JUN binding result is recorded as “decreased”. Moreover, in the series on CUL3, the “decrease in CUL3 expression” value is listed as around 25%. For the same substance, in the series with FOS, the FOS binding result is listed as “decreased”.
